Test results taken from US8623857B2, “N-phenyl imidazole carboxamide inhibitors of 3-phosphoinositide-dependent protein kinase-1” (Merck Sharp & Dohme Corp., priority 2010, dated 2014).

These compounds were tested against T1, recombinant human PDK1 (Homo sapiens, UniProt O15530) (assay: PDK1 IMAP fluorescence polarization assay (inhibition of peptide substrate phosphorylation)). Conditions: Table 6; 10 nM PDK1 enzyme, 100 nM peptide substrate, 100 nM PIFtide, 2.5 uM ATP, 1.5 hours.
T1 construct: containing amino acids 51-556 of the human PDK1 enzyme; made in house; host or cells: Sf9 insect cells
T1 sequence (O15530 51-556): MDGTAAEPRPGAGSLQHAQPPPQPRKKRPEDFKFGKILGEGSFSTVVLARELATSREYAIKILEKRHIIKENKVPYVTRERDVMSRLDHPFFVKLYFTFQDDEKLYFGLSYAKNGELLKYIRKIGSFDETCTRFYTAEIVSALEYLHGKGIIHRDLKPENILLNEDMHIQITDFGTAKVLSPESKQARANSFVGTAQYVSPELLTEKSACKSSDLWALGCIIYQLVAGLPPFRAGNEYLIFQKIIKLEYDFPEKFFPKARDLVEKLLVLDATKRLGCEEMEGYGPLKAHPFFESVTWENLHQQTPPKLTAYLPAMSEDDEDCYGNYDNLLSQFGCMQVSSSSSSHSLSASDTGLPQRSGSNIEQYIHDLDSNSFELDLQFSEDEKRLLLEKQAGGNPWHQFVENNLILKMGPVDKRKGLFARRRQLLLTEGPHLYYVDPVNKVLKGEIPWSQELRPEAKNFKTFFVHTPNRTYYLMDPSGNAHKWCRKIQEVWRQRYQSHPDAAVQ
Format: biochemical
Compound `Nc1ccc(N2CCC[C@@H](N)C2)c(NC(=O)c2ncc[nH]2)c1` [Compound 1, N-[5-amino-2-(3(R)-amino-1-piperidinyl)phenyl]-1H-imidazole-2-carboxamide] has an IC50 of 51 to 250 nM.
For `CNC1(C(N)=O)CCN(c2ccc(N)cc2NC(=O)c2ncc[nH]2)CC1` [Compound 2, 1-[4-amino-2-[(1H-imidazol-2-ylcarbonyl)amino]phenyl]-4-(methylamino)-4-piperidinecarboxamide], the IC50 was 1000 to 5000 nM.
`NCC1CCN(c2ccc(N)cc2NC(=O)c2ncc[nH]2)CC1` [Compound 3, N-[5-amino-2-[4-(aminomethyl)-1-piperidinyl]phenyl]-1H-imidazole-2-carboxamide] showed an IC50 of 251 to 1000 nM.
`N[C@@H]1CCCN(c2c(F)cccc2NC(=O)c2nc(-c3cnn(Cc4ccccc4)c3)c[nH]2)C1` [Compound 4, N-[2-(3(R)-amino-1-piperidinyl)-3-fluorophenyl]-4-[1-(phenylmethyl)-1H-pyrazol-4-yl]-1H-imidazole-2-carboxamide] was tested, and the IC50 was 51 to 250 nM.
`N[C@@H]1CCCN(c2c(F)cccc2NC(=O)c2nc(-c3cnn(Cc4cccs4)c3)c[nH]2)C1` [Compound 5, N-[2-(3(R)-amino-1-piperidinyl)-3-fluorophenyl]-4-[1-(2-thienylmethyl)-1H-pyrazol-4-yl]-1H-imidazole-2-carboxamide] was tested, and the IC50 was 51 to 250 nM.
Work on `CN(C)CCOc1ccccc1NC(=O)c1nc(-c2cnn(Cc3ccccc3)c2)c[nH]1` [Compound 6, N-[2-[2-(dimethylamino)ethoxy]phenyl]-4-[1-(phenylmethyl)-1H-pyrazol-4-yl]-1H-imidazole-2-carboxamide] yielded an IC50 of 1000 to 5000 nM.
`N[C@@H]1CCCN(c2c(F)cccc2NC(=O)c2nc(-c3cnn(Cc4ccccn4)c3)c[nH]2)C1` [Compound 7, N-[2-(3(R)-amino-1-piperidinyl)-3-fluorophenyl]-4-[1-(2-pyridinylmethyl)-1H-pyrazol-4-yl]-1H-imidazole-2-carboxamide] was tested, and the IC50 was 1000 to 5000 nM.
Compound `Cc1cc(-c2c[nH]c(C(=O)Nc3cccc(F)c3N3CCC[C@@H](N)C3)n2)ccn1` [Compound 8, N-[2-(3(R)-amino-1-piperidinyl)-3-fluorophenyl]-4-(2-methyl-4-pyridinyl)-1H-imidazole-2-carboxamide] has an IC50 of 1 to 50 nM.
Work on `N[C@@H]1CCCN(c2c(F)cccc2NC(=O)c2nc(-c3cncc(C(F)(F)F)c3)c[nH]2)C1` [Compound 9, N-[2-(3(R)-amino-1-piperidinyl)-3-fluorophenyl]-4-[5-(trifluoromethyl)-3-pyridinyl]-1H-imidazole-2-carboxamide] yielded an IC50 of 1000 to 5000 nM.
Compound `N[C@@H]1CCCN(c2c(F)cccc2NC(=O)c2nc(-c3ccncc3)c[nH]2)C1` [Compound 10, N-[2-(3(R)-amino-1-piperidinyl)-3-fluorophenyl]-4-(4-pyridinyl)-1H-imidazole-2-carboxamide] has an IC50 of 251 to 1000 nM.
`N[C@@H]1CCCN(c2c(F)cccc2NC(=O)c2nc(-c3cn[nH]c3)c[nH]2)C1` [Compound 11, N-[2-(3(R)-amino-1-piperidinyl)-3-fluorophenyl]-4-(1H-pyrazol-4-yl)-1H-imidazole-2-carboxamide] showed an IC50 of 51 to 250 nM.
`N[C@@H]1CCCN(c2c(F)cccc2NC(=O)c2nc(Br)c[nH]2)C1` [Compound 12, N-[2-(3(R)-amino-1-piperidinyl)-3-fluorophenyl]-4-bromo-1H-imidazole-2-carboxamide] was tested, and the IC50 was 51 to 250 nM.
`N[C@@H]1CCCN(c2c(F)cccc2NC(=O)c2nc(-c3cnn(Cc4cccnc4)c3)c[nH]2)C1` [Compound 13, N-[2-(3(R)-amino-1-piperidinyl)-3-fluorophenyl]-4-[1-(3-pyridinylmethyl)-1H-pyrazol-4-yl]-1H-imidazole-2-carboxamide] was tested, and the IC50 was 51 to 250 nM.
`Cn1cc(-c2c[nH]c(C(=O)Nc3cccc(F)c3N3CCC[C@@H](N)C3)n2)cn1` [Compound 14, N-[2-(3(R)-amino-1-piperidinyl)-3-fluorophenyl]-4-(1-methyl-1H-pyrazol-4-yl)-1H-imidazole-2-carboxamide] gave an IC50 of 251 to 1000 nM.
`NC(=O)N[C@@H]1CCCN(c2c(F)cccc2NC(=O)c2nc(Br)c[nH]2)C1` [Compound 15, N-[2-[3(R)-[(aminocarbonyl)amino]-1-piperidinyl]-3-fluorophenyl]-4-bromo-1H-imidazole-2-carboxamide] was tested, and the IC50 was 1000 to 5000 nM.
Work on `Nc1ccc(N2CCC[C@@H](N)C2)c(NC(=O)c2nc(Br)c[nH]2)c1` [Compound 16, N-[5-amino-2-(3(R)-amino-1-piperidinyl)phenyl]-4-bromo-1H-imidazole-2-carboxamide] yielded an IC50 of 51 to 250 nM.

Same assay, conditions: Table 10; compounds 97-132
Work on `CNc1nc(-c2c[nH]c(C(=O)Nc3ccccc3N3CCNCC3)n2)cc(N2CC(C(=O)NC3CCCCC3)CCC2C)n1` (racemic) [Compound 102, N-cyclohexyl-6-methyl-1-(2-(methylamino)-6-(2-(2-(piperazin-1-yl)phenylcarbamoyl)-1H-imidazol-4-yl)pyrimidin-4-yl)piperidine-3-carboxamide] yielded an IC50 of 1 to 50 nM.
`CNc1nc(-c2c[nH]c(C(=O)Nc3ccccc3N3CCNCC3)n2)cc(N2C[C@@H](C(=O)NC3CCCCC3)CC[C@@H]2C)n1` (racemic) [Compound 104, N-cyclohexyl-6-methyl-1-(2-(methylamino)-6-(2-(2-(piperazin-1-yl)phenylcarbamoyl)-1H-imidazol-4-yl)pyrimidin-4-yl)piperidine-3-carboxamide] showed an IC50 of 51 to 250 nM.
Compound `CNc1nc(-c2c[nH]c(C(=O)Nc3ccccc3OC3CCNCC3)n2)cc(N2CC(C(=O)NC3CCCCC3)CCC2C)n1` (racemic) [Compound 108, N-cyclohexyl-6-methyl-1-(2-(methylamino)-6-(2-(2-(piperidin-4-yloxy)phenylcarbamoyl)-1H-imidazol-4-yl)pyrimidin-4-yl)piperidine-3-carboxamide] has an IC50 of 1 to 50 nM.
Compound `CNc1nc(-c2c[nH]c(C(=O)Nc3cccc(F)c3N3CCOCC3)n2)cc(N2CC(C(=O)NC3CCCCC3)CCC2C)n1` (racemic) [Compound 109, N-cyclohexyl-1-(6-(2-(3-fluoro-2-morpholinophenylcarbamoyl)-1H-imidazol-4-yl)-2-(methylamino)pyrimidin-4-yl)-6-methylpiperidine-3-carboxamide] has an IC50 of 1 to 50 nM.
`CNc1nc(-c2c[nH]c(C(=O)Nc3cccc(F)c3N3CCO[C@@H](CN)C3)n2)cc(N2CC(C(=O)NC3CCCCC3)CCC2C)n1` (mixture of isomers) [Compound 110, 1-(6-(2-(2-((S)-2-(aminomethyl)morpholino)-3-fluorophenylcarbamoyl)-1H-imidazol-4-yl)-2-(methylamino)pyrimidin-4-yl)-N-cyclohexyl-6-methylpiperidine-3-carboxamide] showed an IC50 of 1 to 50 nM.
For `CNc1nc(-c2c[nH]c(C(=O)Nc3cccc(F)c3N3CCO[C@H](CN)C3)n2)cc(N2CC(C(=O)NC3CCCCC3)CCC2C)n1` (mixture of isomers) [Compound 111, 1-(6-(2-(2-((R)-2-(aminomethyl)morpholino)-3-fluorophenylcarbamoyl)-1H-imidazol-4-yl)-2-(methylamino)pyrimidin-4-yl)-N-cyclohexyl-6-methylpiperidine-3-carboxamide], the IC50 was 1 to 50 nM.
Compound `CC1CCC(C(=O)NC2CCCCC2)CN1c1cc(-c2c[nH]c(C(=O)Nc3cc(N)ccc3N3CCC4(CCCNC4)CC3)n2)nc(N)n1` (racemic) [Compound 112, 1-(2-amino-6-(2-(5-amino-2-(2,9-diazaspiro[5.5]undecan-9-yl)phenylcarbamoyl)-1H-imidazol-4-yl)pyrimidin-4-yl)-N-cyclohexyl-6-methylpiperidine-3-carboxamide] has an IC50 of 1 to 50 nM.
Compound `CNc1nc(-c2c[nH]c(C(=O)Nc3ccccc3N3CCC4(CC3)OCCO4)n2)cc(N2CC(C(=O)NC3CCCCC3)CCC2C)n1` (racemic) [Compound 113] has an IC50 of 1 to 50 nM.
`CNc1nc(-c2c[nH]c(C(=O)Nc3cccc(F)c3N3CCC[C@@H](N)C3)n2)cc(N2CC(C(=O)NC3CCCCC3)CCC2C)n1` (mixture of isomers) [Compound 114, 1-(6-(2-(2-((R)-3-aminopiperidin-1-yl)-3-fluorophenylcarbamoyl)-1H-imidazol-4-yl)-2-(methylamino)pyrimidin-4-yl)-N-cyclohexyl-6-methylpiperidine-3-carboxamide] was tested, and the IC50 was 1 to 50 nM.
For `CNc1nc(-c2c[nH]c(C(=O)Nc3cccc(F)c3N3CCC4(CC3)CNC4)n2)cc(N2CC(C(=O)NC3CCCCC3)CCC2C)n1` (racemic) [Compound 118, N-cyclohexyl-1-(6-(2-(3-fluoro-2-(2,7-diazaspiro[3.5]nonan-7-yl)phenylcarbamoyl)-1H-imidazol-4-yl)-2-(methylamino)pyrimidin-4-yl)-6-methylpiperidine-3-carboxamide], the IC50 was 1 to 50 nM.
With `CNc1nc(-c2c[nH]c(C(=O)Nc3cccc(F)c3N3CCC4(CCNC4)CC3)n2)cc(N2CC(C(=O)NC3CCCCC3)CCC2C)n1` (racemic) [Compound 119, N-cyclohexyl-1-(6-(2-(3-fluoro-2-(2,8-diazaspiro[4.5]decan-8-yl)phenylcarbamoyl)-1H-imidazol-4-yl)-2-(methylamino)pyrimidin-4-yl)-6-methylpiperidine-3-carboxamide] the IC50 was 1 to 50 nM.
`CNc1nc(-c2c[nH]c(C(=O)Nc3cccc(F)c3N3CCOC[C@H]3C)n2)cc(N2CC(C(=O)NC3CCCCC3)CCC2C)n1` (mixture of isomers) [Compound 122, N-cyclohexyl-1-(6-(2-(3-fluoro-2-((R)-3-methylmorpholino)phenylcarbamoyl)-1H-imidazol-4-yl)-2-(methylamino)pyrimidin-4-yl)-6-methylpiperidine-3-carboxamide] gave an IC50 of 1 to 50 nM.
